inhibition, Ratio IC50 and IC50 data for 18 molecules are collected here from ChEMBL document CHEMBL2040761, “Design, synthesis, and evaluation of indanone derivatives as acetylcholinesterase inhibitors and metal-chelating agents” (Bioorg Med Chem Lett, 2012).

Structures are written as SMILES. Active and inactive are the calls of the source. No cut-off for these calls is given here.

Sequence of Cholinesterase (P81908 whole entry): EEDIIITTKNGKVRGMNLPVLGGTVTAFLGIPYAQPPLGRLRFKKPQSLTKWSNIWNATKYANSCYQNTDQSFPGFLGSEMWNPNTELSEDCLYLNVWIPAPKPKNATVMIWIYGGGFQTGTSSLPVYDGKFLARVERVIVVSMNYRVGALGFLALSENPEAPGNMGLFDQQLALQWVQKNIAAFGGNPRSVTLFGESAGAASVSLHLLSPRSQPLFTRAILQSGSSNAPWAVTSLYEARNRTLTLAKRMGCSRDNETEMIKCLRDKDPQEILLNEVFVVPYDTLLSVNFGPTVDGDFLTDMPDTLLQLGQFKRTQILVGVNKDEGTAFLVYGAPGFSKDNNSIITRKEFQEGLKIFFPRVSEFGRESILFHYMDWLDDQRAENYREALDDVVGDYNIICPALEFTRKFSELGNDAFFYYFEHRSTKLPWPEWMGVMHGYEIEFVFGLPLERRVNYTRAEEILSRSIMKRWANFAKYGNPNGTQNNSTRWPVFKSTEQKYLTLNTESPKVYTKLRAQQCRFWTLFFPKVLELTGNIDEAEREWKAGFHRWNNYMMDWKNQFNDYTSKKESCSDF

In the first assay the target is Acetylcholinesterase (Electrophorus electricus) (UniProt O42275). Description: Mixed-type inhibition of electric eel acetylcholine esterase using acetylcholine chloride as substrate at 0.001 to 0.003 uM incubated for 15 mins by Lineweaver Burk plot analysis.
Sequence of Acetylcholinesterase (Electrophorus electricus) (O42275 24-633 limits assumed): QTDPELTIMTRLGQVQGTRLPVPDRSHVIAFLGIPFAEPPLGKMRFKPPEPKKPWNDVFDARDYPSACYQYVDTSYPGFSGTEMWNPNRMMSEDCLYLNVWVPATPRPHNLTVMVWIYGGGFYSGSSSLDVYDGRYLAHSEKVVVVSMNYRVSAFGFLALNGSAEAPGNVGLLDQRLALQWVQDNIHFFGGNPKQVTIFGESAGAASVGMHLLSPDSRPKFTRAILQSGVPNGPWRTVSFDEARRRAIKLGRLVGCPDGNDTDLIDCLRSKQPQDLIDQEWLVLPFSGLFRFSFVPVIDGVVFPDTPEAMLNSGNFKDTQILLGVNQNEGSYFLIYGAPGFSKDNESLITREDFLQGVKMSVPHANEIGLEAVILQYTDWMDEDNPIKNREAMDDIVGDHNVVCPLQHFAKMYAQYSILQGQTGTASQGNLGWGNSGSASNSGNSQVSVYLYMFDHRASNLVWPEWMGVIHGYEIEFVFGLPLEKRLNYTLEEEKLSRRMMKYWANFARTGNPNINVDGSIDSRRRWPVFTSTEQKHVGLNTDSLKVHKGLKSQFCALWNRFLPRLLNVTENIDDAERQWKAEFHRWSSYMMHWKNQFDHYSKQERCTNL
As for `COc1cc2c(cc1OCCN1CCCCC1)C(=O)/C(=C\c1ccncc1)C2`, the inhibition result is “Active”.

Another assay has the same target. Description: Ratio of tacrine IC50 to compound IC50 for electric eel acetylcholine esterase.
Take `COc1cc2c(cc1OCCN1CCCCC1)C(=O)/C(=C\c1ccncc1)C2`: the Ratio IC50 is 47.

The next assay shares this target. As to the kind of experiment: Ratio of donepezil IC50 to compound IC50 for electric eel acetylcholine esterase.
As for `COc1cc2c(cc1OCCN1CCCCC1)C(=O)/C(=C\c1ccncc1)C2`, the Ratio IC50 turned out to be 14.

A further assay deals with Acetylcholinesterase (Electrophorus electricus, UniProt O42275).
Sequence of Acetylcholinesterase (O42275 whole entry): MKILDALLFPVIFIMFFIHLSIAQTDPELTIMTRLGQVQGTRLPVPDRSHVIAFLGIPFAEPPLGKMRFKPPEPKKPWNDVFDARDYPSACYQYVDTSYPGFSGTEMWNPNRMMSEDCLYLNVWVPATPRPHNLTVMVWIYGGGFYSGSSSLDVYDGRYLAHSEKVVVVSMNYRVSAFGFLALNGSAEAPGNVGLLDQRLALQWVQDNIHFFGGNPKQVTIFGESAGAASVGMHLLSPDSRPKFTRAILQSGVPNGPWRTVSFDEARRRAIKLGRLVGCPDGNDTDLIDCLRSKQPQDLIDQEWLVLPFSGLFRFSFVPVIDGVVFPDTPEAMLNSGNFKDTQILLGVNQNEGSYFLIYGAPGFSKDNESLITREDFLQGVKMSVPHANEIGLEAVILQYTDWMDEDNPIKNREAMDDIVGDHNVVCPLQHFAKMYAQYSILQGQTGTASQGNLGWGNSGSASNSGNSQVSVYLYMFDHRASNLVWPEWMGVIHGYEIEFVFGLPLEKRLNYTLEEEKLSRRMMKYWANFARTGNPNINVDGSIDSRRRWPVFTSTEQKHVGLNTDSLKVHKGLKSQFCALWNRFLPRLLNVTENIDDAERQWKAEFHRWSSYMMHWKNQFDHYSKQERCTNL
Description: Inhibition of electric eel acetylcholine esterase using acetylcholine chloride as substrate incubated for 15 mins prior to substrate addition measured every 1 min by Ellman's assay
As for `COc1cc2c(cc1OCCCCCN1CCCCC1)C(=O)/C(=C\c1ccncc1)C2`, the IC50 – broadly, the concentration at which inhibition is half-maximal – is 0.288 µM.

The molecule `COc1cc2c(cc1OCCN1CCCCC1)C(=O)CC2` had a 50% inhibitory concentration (IC50) of 3.11 µM.

For `COc1cc2c(cc1OCCCCCCN1CCCCC1)C(=O)/C(=C\c1ccncc1)C2`, the IC50 worked out at 0.232 µM.

As to `COc1cc2c(cc1OCCCCCN1CCCCC1)C(=O)CC2`, the 50% inhibitory concentration (IC50) stood at 0.361 µM.

As to `COc1cc2c(cc1OCCN1CCCCC1)C(=O)/C(=C\c1ccccn1)C2`, half-maximal inhibition (IC50) was put at 0.0044 µM.

Turning to `COc1cc2c(cc1OCCCCN1CCCC1)C(=O)/C(=C\c1ccncc1)C2`, the IC50 is 0.156 µM.

`COc1cc2c(cc1OCCCN1CCCCC1)C(=O)/C(=C\c1ccncc1)C2`: the IC50 worked out at 0.062 µM.

In turn, `COc1cc2c(cc1O)C(=O)/C(=C\c1ccncc1)C2` returned a 50% inhibitory concentration (IC50) of 49.6 µM.

On to `CCN(CC)CCCCCCOc1cc2c(cc1OC)C/C(=C/c1ccncc1)C2=O`, for which the half-inhibitory concentration (IC50) was determined as 0.271 µM.

For the molecule `COc1cc2c(cc1OCCN1CCCCC1)C(=O)/C(=C\c1ccncc1)C2`, the IC50 amounted to 0.0018 µM.

Consider `COc1cc2c(cc1OCCCCN1CCCCC1)C(=O)/C(=C\c1ccncc1)C2`, for which the 50% inhibitory concentration (IC50) was 0.081 µM.

`CCN(CC)CCCCOc1cc2c(cc1OC)C/C(=C/c1ccncc1)C2=O` registered a half-inhibitory concentration (IC50) of 0.205 µM.

For the molecule `COc1cc2c(cc1OCCCCCCn1ccnc1)C(=O)/C(=C\c1ccncc1)C2`, half-maximal inhibition (IC50) was put at 2.87 µM.

Molecule `COc1cc2c(cc1OCCCN1CCCCC1)C(=O)CC2` registered an IC50 of 0.916 µM.

For `COc1cc2c(cc1OCCN1CCCCC1)C(=O)C(Cc1ccccc1)C2` (centres undefined), the half-inhibitory concentration (IC50) turned out to be 1.27 µM.

Consider `COc1cc2c(cc1OCCCCCCCCCN1CCCCC1)C(=O)/C(=C\c1ccncc1)C2`, for which the IC50 was 0.734 µM.

`COc1cc2c(cc1O)C(=O)CC2` registered an IC50 of 92 µM.

As to `COc1cc2c(cc1OCCN1CCCCC1)C(=O)/C(=C\c1ccccc1)C2`, the midpoint of inhibition, the IC50, lay at 0.0091 µM.

Another assay has as its target Cholinesterase (Equus caballus, UniProt P81908).
Description: Inhibition of equine serum butyrylcholinesterase using butyrylthiocholine chloride as substrate incubated for 15 mins prior to substrate addition measured every 1 min by Ellman's assay
`COc1cc2c(cc1OCCCCCN1CCCCC1)C(=O)/C(=C\c1ccncc1)C2` came in with a concentration for half-maximal inhibition (IC50) of 9.15 µM.

As for `COc1cc2c(cc1OCCN1CCCCC1)C(=O)CC2`, the IC50 turned out to be 137 µM.

`COc1cc2c(cc1OCCCCCCN1CCCCC1)C(=O)/C(=C\c1ccncc1)C2` showed a 50% inhibitory concentration (IC50) of 4.47 µM.

As to `COc1cc2c(cc1OCCCCCN1CCCCC1)C(=O)CC2`, half-maximal inhibition (IC50) was put at 115 µM.

Turning to `COc1cc2c(cc1OCCN1CCCCC1)C(=O)/C(=C\c1ccccn1)C2`, the IC50 was determined as 7.48 µM.

Regarding `COc1cc2c(cc1OCCCCN1CCCC1)C(=O)/C(=C\c1ccncc1)C2`, the half-inhibitory concentration (IC50) was found to be 17.5 µM.

`COc1cc2c(cc1OCCCN1CCCCC1)C(=O)/C(=C\c1ccncc1)C2`: the IC50 stood at 42.7 µM.

The molecule `COc1cc2c(cc1O)C(=O)/C(=C\c1ccncc1)C2` had an IC50 of 247 µM.

Turning to `CCN(CC)CCCCCCOc1cc2c(cc1OC)C/C(=C/c1ccncc1)C2=O`, the IC50 is 13.4 µM.

The molecule `COc1cc2c(cc1OCCN1CCCCC1)C(=O)/C(=C\c1ccncc1)C2` had an IC50 of 9.5 µM.

Consider `COc1cc2c(cc1OCCCCN1CCCCC1)C(=O)/C(=C\c1ccncc1)C2`, for which half-maximal inhibition (IC50) was put at 13.8 µM.

Regarding `CCN(CC)CCCCOc1cc2c(cc1OC)C/C(=C/c1ccncc1)C2=O`, the concentration for half-maximal inhibition (IC50) was found to be 28.9 µM.

Consider `COc1cc2c(cc1OCCCCCCn1ccnc1)C(=O)/C(=C\c1ccncc1)C2`, for which the IC50 turned out to be 18.5 µM.

The molecule `COc1cc2c(cc1OCCCN1CCCCC1)C(=O)CC2` showed a half-inhibitory concentration (IC50) of 32.9 µM.

Consider `COc1cc2c(cc1OCCN1CCCCC1)C(=O)C(Cc1ccccc1)C2` (centres undefined), for which the midpoint of inhibition, the IC50, lay at 9.2 µM.

Regarding `COc1cc2c(cc1OCCCCCCCCCN1CCCCC1)C(=O)/C(=C\c1ccncc1)C2`, half-maximal inhibition (IC50) required 1.24 µM.

The molecule `COc1cc2c(cc1O)C(=O)CC2` displayed an IC50 of 258 µM.

As for `COc1cc2c(cc1OCCN1CCCCC1)C(=O)/C(=C\c1ccccc1)C2`, the IC50 is 2.24 µM.
